Laboratory results reported in paper PMC6522981, “Structure-based design generated novel hydroxamic acid based preferential HDAC6 lead inhibitor with on-target cytotoxic activity against primary choroid plexus carcinoma” (Journal of Enzyme Inhibition and Medicinal Chemistry, 2019).
Read-outs that look alike come from different tables or passages of the source.

Key:
[1] = tested on: CCHE-45 cells (primary choroid plexus carcinoma); test: Cytotoxicity assay using xCELLigence system; assay type: cell-based; conditions: for IC50: xCELLigence, 96 h exposure, mean of three replicates, read-out: CCHE-45 IC50 (µM)±SEM
Description: Established primary Choroid plexus carcinoma (CCHE-45) were cultured as previously described, in RPMI-1640 (Lonza, BE-12-702F) supplemented with 10% Fetal Bovine Serum (FBS, Gibco, 12483–020) and 100 U/ml penicillin and 100 µg/ml streptomycin (Lonza, DE17-602F). Cells were maintained at 37 °C in a 5% CO2 humidified atmosphere.
Cytotoxicity assay by the xCELLigence system was performed using RTCA xCELLigence DP system (ACEA Biosciences, Inc., San Diego, CA, USA) as per manufacturer’s instructions https://www.aceabio.com/products/rtca-dp/, https://www.aceabio.com/products/rtca-sp[65–68]. In brief, after setting up the instruments and blanking the wells with media, CCHE-45 cells were seeded into the 96 well E-plate (ACEA Biosciences) with a density of 20,000 cells/well. Attachment and growth of the cells were monitored every 1 h. Approximately 24 h after seeding, when the cells were in the log growth phase, the cells were exposed to a range of test compound 10a concentrations (3.125, 6.25, 12.5, 25, 50, 100, 200, 400) µM for 96 h. Controls received either medium alone, or medium + DMSO with a final concentration below of 0.5%. For each concentration, duplicates were tested. Experiments were conducted in three biological repeats. Results were analyzed using the RTCA software (Version 2.0). Data was exported and average IC50 value was analyzed.
• Based on previous pilot experiment, the highest SK114 conc. (100µM)
72hrs, thus this experiment was performed with higher concentration
• Cells were incubated with the drug for 96hrs
• Experiment was done in technical duplicates

[2] = target: human HDAC5 (Homo sapiens, UniProt Q9UQL6); test: HDAC5 inhibitor enzymatic assay, % inhibition at fixed concentration; conditions: read-out: %inhibition of HDACs at 10µM of test compound HDAC5
[3] = target: T1, human HDAC6 (Homo sapiens, UniProt Q9UBN7); test: HDAC6 inhibitor enzymatic assay, % inhibition at fixed concentration; conditions: read-out: %inhibition of HDACs at 10µM of test compound HDAC6
T1 sequence (Q9UBN7 1-1215): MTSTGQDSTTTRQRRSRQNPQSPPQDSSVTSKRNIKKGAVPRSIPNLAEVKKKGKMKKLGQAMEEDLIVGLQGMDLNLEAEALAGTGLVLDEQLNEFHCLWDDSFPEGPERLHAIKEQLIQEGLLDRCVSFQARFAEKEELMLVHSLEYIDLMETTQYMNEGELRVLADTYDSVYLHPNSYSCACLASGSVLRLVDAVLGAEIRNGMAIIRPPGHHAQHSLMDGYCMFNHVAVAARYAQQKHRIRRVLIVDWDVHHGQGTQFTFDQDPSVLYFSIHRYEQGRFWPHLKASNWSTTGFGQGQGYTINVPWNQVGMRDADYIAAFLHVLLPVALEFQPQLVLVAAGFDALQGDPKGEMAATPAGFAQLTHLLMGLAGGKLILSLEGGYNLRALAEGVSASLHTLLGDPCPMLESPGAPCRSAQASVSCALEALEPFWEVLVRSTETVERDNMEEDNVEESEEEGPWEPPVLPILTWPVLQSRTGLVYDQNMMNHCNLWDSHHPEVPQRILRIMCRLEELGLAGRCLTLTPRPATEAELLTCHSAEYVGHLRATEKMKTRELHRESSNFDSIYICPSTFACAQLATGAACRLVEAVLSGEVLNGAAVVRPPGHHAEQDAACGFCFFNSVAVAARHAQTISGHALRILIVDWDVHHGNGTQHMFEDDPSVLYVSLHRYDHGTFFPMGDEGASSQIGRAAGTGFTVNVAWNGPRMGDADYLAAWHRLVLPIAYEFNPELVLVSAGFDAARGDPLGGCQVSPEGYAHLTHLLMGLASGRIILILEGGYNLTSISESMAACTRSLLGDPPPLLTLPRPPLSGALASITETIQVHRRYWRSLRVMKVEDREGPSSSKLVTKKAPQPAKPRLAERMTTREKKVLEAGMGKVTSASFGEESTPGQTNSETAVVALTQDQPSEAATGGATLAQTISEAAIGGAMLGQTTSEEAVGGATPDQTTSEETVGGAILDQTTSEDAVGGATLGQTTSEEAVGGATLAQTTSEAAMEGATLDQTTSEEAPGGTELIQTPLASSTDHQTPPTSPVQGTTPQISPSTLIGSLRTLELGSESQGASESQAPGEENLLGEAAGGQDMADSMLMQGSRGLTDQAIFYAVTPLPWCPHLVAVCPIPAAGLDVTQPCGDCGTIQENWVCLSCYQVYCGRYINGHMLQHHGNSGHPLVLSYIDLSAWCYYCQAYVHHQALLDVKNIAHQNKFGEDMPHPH

[4] = target: T2, human HDAC8 (Homo sapiens, UniProt Q9BY41); test: HDAC8 inhibitor enzymatic assay, % inhibition at fixed concentration; assay type: biochemical; conditions: read-out: %inhibition of HDACs at 10µM of test compound HDAC8; 10 µM compound
T2 construct: purchased BPS Bioscience 50008
T2 sequence (Q9BY41 1-377): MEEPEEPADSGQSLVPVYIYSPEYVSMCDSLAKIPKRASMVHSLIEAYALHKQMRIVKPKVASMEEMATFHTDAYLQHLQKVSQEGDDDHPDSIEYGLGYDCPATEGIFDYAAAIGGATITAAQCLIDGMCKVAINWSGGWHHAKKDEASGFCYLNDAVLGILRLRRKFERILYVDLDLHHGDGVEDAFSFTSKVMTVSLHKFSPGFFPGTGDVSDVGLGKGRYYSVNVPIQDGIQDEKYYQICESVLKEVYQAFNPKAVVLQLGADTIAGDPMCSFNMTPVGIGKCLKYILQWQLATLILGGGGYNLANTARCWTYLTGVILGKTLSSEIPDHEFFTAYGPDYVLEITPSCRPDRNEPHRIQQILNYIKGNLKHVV

[5] = target: T3, human HDAC2 (Homo sapiens, UniProt Q92769); test: HDAC2 inhibitor enzymatic assay, % inhibition at fixed concentration; assay type: biochemical; conditions: read-out: %inhibition of HDACs at 10µM of test compound HDAC2; 10 µM compound; mean of two replicates
T3 construct: purchased BPS Bioscience 50002
T3 sequence (Q92769 whole entry): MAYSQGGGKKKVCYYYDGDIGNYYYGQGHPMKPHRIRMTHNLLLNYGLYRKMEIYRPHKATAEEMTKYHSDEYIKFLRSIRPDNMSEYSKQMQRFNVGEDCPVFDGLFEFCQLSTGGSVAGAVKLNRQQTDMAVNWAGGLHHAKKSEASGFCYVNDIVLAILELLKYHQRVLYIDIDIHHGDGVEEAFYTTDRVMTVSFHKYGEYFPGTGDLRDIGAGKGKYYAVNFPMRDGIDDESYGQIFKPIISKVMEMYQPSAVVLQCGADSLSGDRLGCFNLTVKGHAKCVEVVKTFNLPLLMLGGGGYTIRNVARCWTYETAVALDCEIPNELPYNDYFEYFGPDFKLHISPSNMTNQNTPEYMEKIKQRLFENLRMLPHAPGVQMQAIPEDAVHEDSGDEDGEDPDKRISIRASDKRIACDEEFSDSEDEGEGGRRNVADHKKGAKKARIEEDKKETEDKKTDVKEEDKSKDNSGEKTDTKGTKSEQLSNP

human HDAC5, sequence (Q9UQL6 656-1122 limits assumed): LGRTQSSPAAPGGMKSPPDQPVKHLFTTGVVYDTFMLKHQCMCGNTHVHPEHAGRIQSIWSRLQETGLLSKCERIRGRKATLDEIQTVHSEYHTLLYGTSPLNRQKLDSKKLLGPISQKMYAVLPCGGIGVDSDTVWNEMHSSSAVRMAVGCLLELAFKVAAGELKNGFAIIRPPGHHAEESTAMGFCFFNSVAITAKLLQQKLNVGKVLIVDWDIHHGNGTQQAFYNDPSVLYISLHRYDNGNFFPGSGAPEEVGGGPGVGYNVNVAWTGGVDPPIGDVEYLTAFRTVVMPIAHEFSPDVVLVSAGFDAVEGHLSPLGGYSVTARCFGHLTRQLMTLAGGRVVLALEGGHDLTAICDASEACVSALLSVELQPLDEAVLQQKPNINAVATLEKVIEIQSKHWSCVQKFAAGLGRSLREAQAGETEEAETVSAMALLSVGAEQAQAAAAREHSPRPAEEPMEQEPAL

O=C(CCCSc1nc2ccccc2n1Cc1ccccc1)NO [Compound 10a, 4-((1-benzyl-1H-benzo[d]imidazol-2-yl)thio)-N-hydroxybutanamide]
effect on cell index of CCHE-45, pilot experiment ([1]; 100 µM (highest conc.), 72 hrs): lowered cell index and induced cell death
effect on cell index (CI) of CCHE-45 ([1]; 100 µM, after 24 h from addition of the drug): reduced CI to half the maximum CI
effect on cell index (CI) of CCHE-45 ([1]; 400 µM or 200 µM, monitoring for 96 h): quick and dramatic reduction in cell index
IC50 ([1]; 96 h): 113 µM
IC50 [1]: 113 ± 11.1 µM
inhibition at 10 µM [2]: 4%
inhibition at 10 µM [3]: 92%
inhibition at 10 µM [4]: 56%
inhibition at 10 µM [5]: 19%
